Patent US8147838B2, “Peptide” (priority 2005, dated 2012)
No end group written: not given here.

Experiments:
[1] = target: MHC class I allele A*0101 (A1) (Homo sapiens, UniProt P04439, A114D/A174V/A182V/D101N/D185E/E176A/E190D/L180R/Q94H/R68K/S129P/T187R/V100A/V91M/W191G); test: iScore multi-parametric analysis, A*0101; type: binding; conditions: for iScore, MHC Class I Molecule A*0101: level of binding: >0.5, 0.25-0.5, <0.25; for iScore (iTopia), A*0101: integrates half-life and ED50
Summary of the method: (§1)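 The iScore comes from multiparametric analysis that combines peptide–MHC complex half-life with ED50 into one measure of binding quality, used to rank peptides. For A*0201, >0.5 is good, 0.25–0.5 medium and <0.25 poor binding; these thresholds are not necessarily transferable to other alleles.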

[2] = target: MHC class I allele A*0201 (A2) (Homo sapiens, UniProt P04439, D140Y/D185E/D98H/E176V/E277Q/G131W/G231S/I119V/I121R/I166T/I218V/L300P/L318F/N151K/N90K/P208A/P217A/Q86G/Q94H/R138H/R169H/T345S); test: iScore multi-parametric analysis, A*0201; type: binding; conditions: level of binding: >0.5, 0.25-0.5, <0.25
Summary of the method: as §1

[3] = target: MHC class I allele A*0301 (A3) (Homo sapiens, UniProt P04439); test: iScore multi-parametric analysis, A*0301; type: binding; conditions: for iScore, MHC Class I Molecule A*0301: level of binding: >0.5, 0.25-0.5, <0.25
Summary of the method: as §1

[4] = target: MHC class I allele B*0702 (B7) (Homo sapiens, UniProt P01889); test: iScore multi-parametric analysis, B*0702; conditions: level of binding: >0.5, 0.25-0.5, <0.25
Summary of the method: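 iScore integrates peptide-MHC complex half-life and ED50 into a single multi-parametric value reflecting overall binding quality.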

Compound | iScore, MHC Class I Molecule A*0101 [1] | iScore, MHC Class I Molecule A*0201 [2] | iScore, MHC Class I Molecule A*0301 [3] | iScore, MHC Class I Molecule B*0702 [4] | iScore (iTopia), A*0101 [1] | iScore (iTopia), A*0301 ([3]; integrates half-life and ED50)
LSGSRLDEV [Peptide 63] | 0 | 0.075 | 0 | 0.107 |  | 
APSPLVELI [Peptide 86] | 0 | 0 | 0 | 0.101 |  | 
RLDEVRAGA [Peptide 65] | 0 | 0.422 | 0.057 | 0.032 |  | 
LALVLLGWV [Peptide 11] | 0 | 0.237 | 0 | 0 |  | 
PPSLQTSYV [Peptide 175] | 0 | 0.145 | 0 | 0 |  | 
ELAALNLSG [Peptide 60] | 0 | 0.075 | 0 | 0 |  | 
LASNHFLYL [Peptide 109] | 0.12 | 0.337 | 0.224 | 0 | 0.12 | 0.224
GAFARRPPL [Peptide 55] | 0 | 0.222 | 0 | 0.359 |  | 
C[C@H](NC(=O)[C@H](C)NC(=O)[C@@H]1CCCN1C(=O)CNC(=O)[C@H](CCCNC(=N)N)NC(=O)[C@H](CO)NC(=O)[C@H](CS)NC(=O)CNC(=O)CN)C(=O)O [Peptide 2] | 0 | 0.016 | 0 | 0.012 |  | 
CC[C@H](C)[C@H](NC(=O)[C@H](C)NC(=O)CNC(=O)[C@@H](NC(=O)[C@@H](N)CC(C)C)[C@@H](C)CC)C(=O)N[C@@H](Cc1ccccc1)C(=O)N[C@@H](CC(C)C)C(=O)N[C@@H](CC(C)C)C(=O)N[C@H](C(=O)O)C(C)C [Peptide 183] | 0 | 1.897 | 0.07 | 0 |  | 
LLAGRALQG [Peptide 102] | 0 | 0.176 | 0 | 0 |  | 
RALQGLRRL [Peptide 104] | 0 | 0.168 | 0.027 | 0.078 |  | 
VPTDLPAYV [Peptide 43] | 0.098 | 0.059 | 0 | 0 | 0.098 | 
AQLPSLRHL [Peptide 116] | 0 | 0.162 | 0 | 0 |  | 
FEGMVVAAL [Peptide 98, FEGMVVAAL] | 0 | 0.051 | 0 | 0 |  | 
VLLELNSAD [Peptide 167] | 0 | 0.105 | 0 | 0 |  | 
YLNRKGIKK [Peptide 188] | 0 | 0.118 | 0.065 | 0.089 |  | 
ADPRLTNLS [Peptide 204] | 0 | 0 | 0 | 0.094 |  | 

Compound | iScore, MHC Class I Molecule A*0101 [1] | iScore, MHC Class I Molecule A*0201 [2] | iScore, MHC Class I Molecule A*0301 [3] | iScore, MHC Class I Molecule B*0702 [4] | iScore (iTopia), A*0101 [1] | iScore (iTopia), A*0301 ([3]; integrates half-life and ED50)
ALKVLHNGT [Peptide 135] | 0 | 0.104 | 0 | 0 |  | 
EHLPSLRQL [Peptide 70] | 0 | 0.046 | 0 | 0 |  | 
LTHLESLHL [Peptide 129] | 0 | 0.143 | 0 | 0 |  | 
VRAGAFEHL [Peptide 67] | 0 | 0 | 0 | 0.085 |  | 
SNHFLYLPR [Peptide 110] | 0 | 0.051 | 0.084 | 0 |  | 
LQGLPHIRV [Peptide 141] | 0 | 0.2 | 0 | 0 |  | 
FSSSAPFLA [Peptide 21] | 0.023 | 0.116 | 0 | 0 |  | 
NRVLLELNS [Peptide 166] | 0 | 0.031 | 0 | 0 |  | 
IKKWMHNIR [Peptide 191] | 0 | 0.181 | 0 | 0 |  | 
NRKGIKKWM [Peptide 189] | 0 | 0.138 | 0 | 0 |  | 
YPEKMRNRV [Peptide 163] | 0 | 0 | 0 | 0.242 |  | 
LALIGAIFL [Peptide 182] | 0 | 0.425 | 0 | 0.067 |  | 
ILNHIVPPE [Peptide 90] | 0 | 0.426 | 0 | 0 |  | 
RNLTHLESL [Peptide 128] | 0 | 0.072 | 0 | 0 |  | 
LYLPRDVLA [Peptide 112] | 0 | 0.218 | 0 | 0 |  | 
LSNNSLVSL [Peptide 121] | 0 | 0.116 | 0 | 0.112 |  | 
EKMRNRVLL [Peptide 164] | 0 | 0.096 | 0 | 0 |  | 
